Data: PubChem BioAssay (NCI)
Where “and” joins values, the source holds several entries; their conditions need not be identical. Identical values can stand only once.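 Tested at 5 concentrations; 48 h exposure; 96-well plates; endpoints linearly interpolated, else capped at highest concentration. Abbreviation: GI50, concentration required for 50% inhibition of growth. TGI is the concentration that stops growth completely.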

How the values were obtained:
Experiment in all cases: DTP human tumour cell line panel, 48 h
[1] = test system: MALME-3M melanoma
[2] = test system: SK-MEL-5 melanoma
[3] = test system: SK-MEL-28 melanoma
[4] = test system: T-47D breast
[5] = test system: SR leukemia
[6] = test system: HOP-62 NSCLC
[7] = test system: M14 melanoma
[8] = test system: TK-10 renal
[9] = test system: ACHN renal
[10] = test system: K-562 leukemia

Row | SMILES | TGI [1] | TGI [2] | TGI [3] | TGI [4] [µM] | TGI [5] | TGI [6] | TGI [7] | TGI [8] | TGI [9] | TGI [10] | GI50 [1] [µM] | GI50 [2] [µM] | GI50 [3] [µM] | GI50 [4] [µM] | GI50 [5] [µM] | GI50 [6] [µM] | GI50 [7] [µM] | GI50 [8] [µM] | GI50 [9] [µM] | GI50 [10] [µM]
1 | O=C(O)CSC1=NNC2(C(=O)N1)c1ccccc1-c1ccccc12 | > 10 µM | > 10 µM | > 10 µM | > 10 | > 10 µM | > 10 µM | > 10 µM | > 10 µM | > 10 µM | > 10 µM | – | – | – | – | – | – | – | – | – | –
2 | COC(=O)c1onc(C2OC(C)(C)OC2C(O)COC(c2ccccc2)(c2ccccc2)c2ccccc2)c1C(=O)OC (centres undefined) | > 100 µM | > 100 µM | > 100 µM | > 100 | > 100 µM | > 100 µM | > 100 µM | > 100 µM | > 100 µM | > 100 µM | – | – | – | – | – | – | – | – | – | –
3 | COc1c(OC)c(OC)c2c(=O)cc(-c3ccc(OC(C)C)cc3)oc2c1OC | > 50.3 µM | 25.5 µM | > 55.4 µM | 42.5 | > 26.2 µM | 37.5 µM | 43.1 µM | > 53.9 µM | > 55.8 µM | > 100 µM | – | – | – | – | – | – | – | – | – | –
4 | COc1cc(F)c(F)cc1C(=O)c1cnc(NC2CCN(S(C)(=O)=O)CC2)nc1N | 24.2 µM | > 14.4 µM | > 25 µM | 23.8 | 10.2 µM | > 22.2 µM | > 25 µM | 19.3 µM | > 23.6 µM | > 25 µM | 2.78 | 2.07 | 4.08 | 4.58 | 1.23 | 6.17 | 4.73 | 2.92 | 3.19 | 7.29
5 | COc1cc(Cl)c(CC(=O)c2c[nH]c3ccccc23)cc1OC | > 100 µM | > 100 µM | > 100 µM | > 100 | > 100 µM | 28.7 µM | > 100 µM | > 74 µM | > 100 µM | > 100 µM | – | – | – | – | – | – | – | – | – | –
6 | C1CSC[C@H]2COC[C@@H](CSCCS1)S2 | – | > 100 µM | > 100 µM | > 100 | > 100 µM | > 100 µM | > 100 µM | > 100 µM | – | > 100 µM | – | – | – | – | – | – | – | – | – | –
7 | O=C1NC(=O)C(c2cccc(Cl)c2)=C1Nc1ccc(Cl)c(C(=O)O)c1 | > 25 µM | > 25 µM | > 25 µM | > 25 | > 25 µM | > 25 µM | > 25 µM | > 25 µM | > 25 µM | > 25 µM | > 25 | > 25 | > 25 | > 25 | > 25 | > 25 | > 25 | > 25 | > 25 | > 25
8 | CN(C)C=N[C@@H](C(=O)O)c1ccccc1 | > 100 µM | > 100 µM | > 100 µM | > 100 | > 100 µM | > 100 µM | > 100 µM | > 100 µM | > 100 µM | > 100 µM | – | – | – | – | – | – | – | – | – | –
9 | N#C/C(=C/N1CCN(C(=O)c2ccco2)C1=S)C(=O)Nc1ccc(Cl)cc1 | > 50 µM | 24.7 µM | > 50 µM | > 50 | 21.3 µM | > 50 µM | > 50 µM | > 50 µM | 42.2 µM | > 50 µM | 21.4 | 11.2 | 18.7 | > 50 | 1.56 | 25.7 | 14.2 | 19.4 | 15.3 | 16.1
10 | COc1cc(/C=C/C(=O)CC(=O)/C=C/c2cc(OC)c(O)c(OC)c2)cc(OC)c1O | 25 µM and 30.6 µM | 25 µM and 36.4 µM | 21.5 µM and 57.8 µM | 21.5 | 25 µM and > 100 µM | 25 µM and > 100 µM | 25 µM and 28 µM | 25 µM and > 100 µM | 25 µM and > 100 µM | 25 µM and > 100 µM | 14.8 | 13.2 | 14.1 | – | 7.56 | 19.6 | 10.4 | 34.2 | 42.2 | –
11 | COc1cc(C)cc(C(=O)/C=C/c2ccccc2)c1O | – | 40.4 µM | 50.7 µM | 44.6 | 77.6 µM | 40.3 µM | 34.8 µM | 35.8 µM | 33.1 µM | > 100 µM | – | – | – | – | – | – | – | – | – | –
12 | COC1=C(OC)C(=O)C(C/C=C(\C)CC/C=C(\C)CC/C=C(\C)CC/C=C(\C)CC/C=C(\C)CC/C=C(\C)CC/C=C(\C)CC/C=C(\C)CC/C=C(\C)CCC=C(C)C)=C(C)C1=O | > 100 µM | > 100 µM | > 100 µM | > 100 | > 100 µM | > 100 µM | > 100 µM | > 100 µM | > 100 µM | > 100 µM | > 100 | > 100 | > 100 | > 100 | > 100 | > 100 | > 100 | > 100 | > 100 | > 100
13 | CN1CCN(CCCOc2ccc3nc(Nc4ccc(F)c(F)c4)ccc3c2)CC1 | 3.06 µM | 2.88 µM | 3.2 µM | 8.79 | 6.95 µM | 3.88 µM | 3.68 µM | 4.23 µM | 5.6 µM | 5.25 µM | 1.15 | 1.47 | 1.56 | 1.88 | 1.71 | 1.86 | 1.74 | 2 | 2.24 | 1.37
14 | COc1ccc2nc(C)cc(Sc3nc4ccccc4s3)c2c1 | 11.9 µM | 13.5 µM | 9.89 µM | 11 | 2.46 µM | 6.06 µM | 9.34 µM | 5.47 µM | 5.77 µM | – | 0.426 | 2.88 | 2.45 | 0.881 | 0.432 | 1.26 | 1.92 | 1.4 | 1.21 | 1.21
15 | COc1cc(S(=O)(=O)Nc2nc(-c3ccc(N4C(=O)C(C)SC4c4ccccc4O)cc3)cs2)ccc1Cl (centres undefined) | > 100 µM | > 100 µM | > 100 µM | > 100 | > 100 µM | > 100 µM | > 100 µM | > 100 µM | > 100 µM | > 100 µM | 89.2 | 26 | 39.5 | 28.8 | 43.3 | 59.4 | 38.6 | 97.6 | 42.7 | 33.4
16 | COc1ccc(CSC2=C(C#N)C(=O)NC3(CCCCC3)S2)cc1 | > 100 µM | > 100 µM | > 100 µM | 63.2 | > 100 µM | > 100 µM | > 100 µM | > 100 µM | > 100 µM | > 100 µM | – | – | – | – | – | – | – | – | – | –
